Series [1] relates to CYP26 RNA expression in NB4 cells. Description: CYP26 RNA expression in NB4 cells (Q-RT-PCR). It is filed as cell-based. The settings on record: 1 day, normalised to BACT, control set to 1.0. How it is done:
HL60 or NB4 cells were cultured at 1.0×10^6 cells/ml in complete growth medium. Cells (10 ml) were then treated with ATRA, the compound of Example 7(MI-192), or left untreated as controls. After 1 day, the expression of CYP26 and BACT RNAs were determined using quantitative PCR (Taqman). The expression of CYP26 RNA was normalised to BACT, and expression in control cells was set to 1.0.

On to `C=C1CN(Cc2ccc(C(=O)Nc3ccccc3N)cc2)C(=O)c2ccccc21` [Example 7, N-(2-Aminophenyl)-4-[(4-methylene-1-oxo-3,4-dihydroisoquino-2(1H)-yl)methyl]benzamide], for which, in series [1], the “CYP26 RNA expression” value is “induces expression of CYP26”.
For the compound `C=C1CN(Cc2ccc(C(=O)Nc3ccccc3N)cc2)C(CC(=O)O)c2ccccc21` (centres unmarked) [Example 9, [2-(4-{[(2-Aminophenyl)amino]carbonyl}benzyl)-4-methylene-1,2,3,4-tetra hydroisoquinolin-1-yl]acetic acid], the melting point (as a rule, the temperature, or range, at which the solid turns liquid) was greater than 230 °C.

(Values after US20140135327A1, “N- (2 -AMINOPHENYL) BENZAMIDE DERIVATIVES AS HISTONE DEACETYLASE INHIBITORS” (CANCER RESEARCH TECHNOLOGY LIMITED, priority 2011, published 2014).)
